According to PubChem BioAssay (NCI):
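Exposure lasted 48 hours, with cells grown in 96-well plates and compounds tested at five concentrations. GI50: concentration for 50% inhibition of growth. TGI marks complete inhibition of growth.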

How the values were obtained:
Test in all cases: inhibition of tumour cell growth, NCI panel, 48 h
786-0 renal = tested on: 786-0 renal
SF-295 CNS = tested on: SF-295 CNS
SW-620 colon = tested on: SW-620 colon
TK-10 renal = tested on: TK-10 renal
K-562 leukemia = tested on: K-562 leukemia
SF-539 CNS = tested on: SF-539 CNS
SK-MEL-2 melanoma = tested on: SK-MEL-2 melanoma
MOLT-4 leukemia = tested on: MOLT-4 leukemia
SK-MEL-5 melanoma = tested on: SK-MEL-5 melanoma
BT-549 breast = tested on: BT-549 breast

O=C1C2CC=CCC2C(=O)C12CCc1ccccc12 (configuration not stated)
TGI (786-0 renal): > 100 µM
TGI (SF-295 CNS): > 100 µM
TGI (SW-620 colon): > 100 µM
TGI (TK-10 renal): > 100 µM
TGI (K-562 leukemia): > 100 µM

COc1cc2cc3c4c(cc(OC)c(OC)c4c2cc1OC)CCN3C(=O)N(C)C
TGI (786-0 renal): > 100 µM
TGI (SF-539 CNS): > 100 µM
TGI (SF-295 CNS): > 100 µM
TGI (SW-620 colon): > 100 µM
TGI (TK-10 renal): > 10 µM
TGI (SK-MEL-2 melanoma): > 100 µM
TGI (MOLT-4 leukemia): > 100 µM
TGI (K-562 leukemia): > 100 µM
TGI (SK-MEL-5 melanoma): > 100 µM

Nc1nc2ccc3[nH]ncc3c2c2c1CCCC2
GI50 (786-0 renal): 2.15 µM
TGI (786-0 renal): 9.85 µM
GI50 (SF-539 CNS): 1.51 µM
TGI (SF-539 CNS): 3.18 µM
GI50 (BT-549 breast): 1.38 µM
TGI (BT-549 breast): 3.34 µM
GI50 (SF-295 CNS): 2.49 µM
TGI (SF-295 CNS): 10.5 µM
GI50 (SW-620 colon): 1.55 µM
TGI (SW-620 colon): 10 µM
GI50 (TK-10 renal): 2 µM
TGI (TK-10 renal): 14.5 µM
GI50 (SK-MEL-2 melanoma): 2.12 µM
TGI (SK-MEL-2 melanoma): 5.35 µM
GI50 (MOLT-4 leukemia): 2.81 µM
TGI (MOLT-4 leukemia): 10.8 µM
GI50 (K-562 leukemia): 3.15 µM
TGI (K-562 leukemia): 15 µM
GI50 (SK-MEL-5 melanoma): 1.54 µM
TGI (SK-MEL-5 melanoma): 4.08 µM

C/C(CC(=O)Nc1ccc(Cl)cc1)=N\NC(=O)C[n+]1ccccc1
TGI (786-0 renal): > 100 µM
TGI (SF-539 CNS): > 100 µM
TGI (SF-295 CNS): > 100 µM
TGI (SW-620 colon): > 100 µM
TGI (TK-10 renal): > 100 µM
TGI (SK-MEL-2 melanoma): > 100 µM
TGI (MOLT-4 leukemia): > 100 µM
TGI (K-562 leukemia): > 100 µM
TGI (SK-MEL-5 melanoma): > 100 µM

Cc1ccc(C(=O)N2c3ccccc3N(C)n3cccc3C2CC(=O)O)cc1 (configuration not stated)
TGI (786-0 renal): > 100 µM
TGI (SF-539 CNS): > 100 µM
TGI (SF-295 CNS): > 100 µM
TGI (SW-620 colon): > 100 µM
TGI (TK-10 renal): > 100 µM
TGI (SK-MEL-2 melanoma): > 100 µM
TGI (MOLT-4 leukemia): > 100 µM
TGI (K-562 leukemia): > 100 µM
TGI (SK-MEL-5 melanoma): > 100 µM

CC(=O)OCc1ccc(O)c(C=O)c1
TGI (786-0 renal): > 100 µM
TGI (SF-539 CNS): > 100 µM
TGI (BT-549 breast): > 100 µM
TGI (SF-295 CNS): > 100 µM
TGI (SW-620 colon): > 100 µM
TGI (TK-10 renal): > 100 µM
TGI (SK-MEL-2 melanoma): > 100 µM
TGI (MOLT-4 leukemia): > 100 µM
TGI (K-562 leukemia): > 100 µM
TGI (SK-MEL-5 melanoma): > 100 µM

CC(C)(c1ccc(Oc2ccc(C#N)c(C#N)c2)cc1)c1ccc(Oc2ccc(C#N)c(C#N)c2)cc1
GI50 (786-0 renal): > 100 µM
TGI (786-0 renal): > 100 µM
GI50 (SF-539 CNS): > 100 µM
TGI (SF-539 CNS): > 100 µM
GI50 (SF-295 CNS): > 100 µM
TGI (SF-295 CNS): > 100 µM
TGI (SW-620 colon): > 100 µM
GI50 (TK-10 renal): > 100 µM
TGI (TK-10 renal): > 100 µM
GI50 (SK-MEL-2 melanoma): > 100 µM
TGI (SK-MEL-2 melanoma): > 100 µM
GI50 (MOLT-4 leukemia): > 100 µM
TGI (MOLT-4 leukemia): > 100 µM
GI50 (K-562 leukemia): > 100 µM
TGI (K-562 leukemia): > 100 µM
GI50 (SK-MEL-5 melanoma): > 100 µM
TGI (SK-MEL-5 melanoma): > 100 µM

COC1=C2C[C@H](O)C(C)C[C@@]2(OC)OC1=O (some centres not stated)
TGI (786-0 renal): > 100 µM
TGI (SF-539 CNS): > 100 µM
TGI (SF-295 CNS): > 100 µM
TGI (SW-620 colon): > 100 µM
TGI (SK-MEL-2 melanoma): > 100 µM
TGI (MOLT-4 leukemia): > 100 µM
TGI (K-562 leukemia): > 100 µM
TGI (SK-MEL-5 melanoma): > 100 µM

CC(C)(O)[C@@H]1CC[C@@]2(C)CCC[C@H](O)[C@H]2C1
TGI (786-0 renal): > 100 µM
TGI (SF-539 CNS): > 100 µM
TGI (SF-295 CNS): > 100 µM
TGI (SW-620 colon): > 100 µM
TGI (TK-10 renal): > 100 µM
TGI (SK-MEL-2 melanoma): > 100 µM
TGI (MOLT-4 leukemia): > 100 µM
TGI (K-562 leukemia): > 100 µM
TGI (SK-MEL-5 melanoma): > 100 µM

O=[P+](O)c1cc2ccccc2c2ccccc12
TGI (786-0 renal): > 100 µM
TGI (SF-539 CNS): > 100 µM
TGI (SF-295 CNS): > 100 µM
TGI (SW-620 colon): > 100 µM
TGI (TK-10 renal): > 100 µM
TGI (MOLT-4 leukemia): > 100 µM
TGI (K-562 leukemia): > 100 µM
TGI (SK-MEL-5 melanoma): > 100 µM

CSc1nc(SC)c2c(C(N)=S)[nH]nc2n1
TGI (786-0 renal): > 100 µM
TGI (SF-539 CNS): 60 µM
TGI (SF-295 CNS): 48.1 µM
TGI (SW-620 colon): > 100 µM
TGI (TK-10 renal): 63.5 µM
TGI (SK-MEL-2 melanoma): 50.5 µM
TGI (MOLT-4 leukemia): 99.3 µM
TGI (K-562 leukemia): 78.9 µM
TGI (SK-MEL-5 melanoma): 34.1 µM

COC(=O)[C@@]1(O)CC(C)C=C1C=O (some centres not stated)
TGI (786-0 renal): > 100 µM
TGI (SF-539 CNS): > 100 µM
TGI (SF-295 CNS): > 100 µM
TGI (SW-620 colon): > 100 µM
TGI (TK-10 renal): > 100 µM
TGI (SK-MEL-2 melanoma): > 100 µM
TGI (MOLT-4 leukemia): > 100 µM
TGI (K-562 leukemia): > 100 µM
TGI (SK-MEL-5 melanoma): > 100 µM

C[C@]1(C(=O)O)N[C@H](C(=O)O)CS1
GI50 (786-0 renal): > 1000 µM
TGI (786-0 renal): > 1000 µM
GI50 (SF-295 CNS): 933 µM
TGI (SF-295 CNS): > 1000 µM
GI50 (SW-620 colon): > 1000 µM
TGI (SW-620 colon): > 1000 µM
GI50 (TK-10 renal): > 1000 µM
TGI (TK-10 renal): > 1000 µM
GI50 (SK-MEL-2 melanoma): > 1000 µM
TGI (SK-MEL-2 melanoma): > 1000 µM
GI50 (K-562 leukemia): 2.34 µM
TGI (K-562 leukemia): > 1000 µM
GI50 (SK-MEL-5 melanoma): 1.48 µM
TGI (SK-MEL-5 melanoma): 270 µM

COc1ccc(-c2nnc(-c3c(C)n(C)n(-c4ccccc4)c3=O)o2)cc1
TGI (786-0 renal): > 100 µM
TGI (SF-539 CNS): > 100 µM
TGI (SF-295 CNS): > 100 µM
TGI (SW-620 colon): > 100 µM
TGI (TK-10 renal): > 100 µM
TGI (SK-MEL-2 melanoma): > 100 µM
TGI (MOLT-4 leukemia): > 100 µM
TGI (K-562 leukemia): > 100 µM

CCCCCCCC(=O)OCC1OC(n2cc(F)c(=O)[nH]c2=O)C(NC(=O)OCc2ccccc2)C(O)C1O (configuration not stated)
TGI (786-0 renal): > 100 µM
TGI (SF-539 CNS): > 100 µM
TGI (SF-295 CNS): > 100 µM
TGI (SW-620 colon): > 100 µM
TGI (TK-10 renal): > 100 µM
TGI (SK-MEL-2 melanoma): 53.5 µM
TGI (MOLT-4 leukemia): > 100 µM
TGI (K-562 leukemia): > 100 µM
TGI (SK-MEL-5 melanoma): 23.7 µM

CC1(C)N=C(N)N=C(N)N1c1ccc(CCc2ccc(Cl)cc2S(=O)(=O)F)c(Cl)c1
GI50 (786-0 renal): 5.21 µM
TGI (786-0 renal): > 100 µM
GI50 (SF-539 CNS): 5.54 µM
TGI (SF-539 CNS): 26.1 µM
GI50 (SF-295 CNS): 4.82 µM
TGI (SF-295 CNS): > 100 µM
GI50 (SW-620 colon): 2.66 µM
TGI (SW-620 colon): 17.7 µM
GI50 (MOLT-4 leukemia): 11.5 µM
TGI (MOLT-4 leukemia): 73.6 µM
GI50 (K-562 leukemia): 6.81 µM
TGI (K-562 leukemia): > 100 µM
GI50 (SK-MEL-5 melanoma): 4.39 µM
TGI (SK-MEL-5 melanoma): 16.3 µM

COc1cc([C@H]2c3cc4c(cc3[C@H](NCc3ccc([N+](=O)[O-])cc3)C3COC(=O)[C@H]32)OCO4)cc(OC)c1O (some centres not stated)
TGI (786-0 renal): 2.78 µM
TGI (SF-539 CNS): 2.95 µM
TGI (SF-295 CNS): 5.14 µM
TGI (SW-620 colon): > 38.3 µM
TGI (TK-10 renal): 7.08 µM
TGI (SK-MEL-2 melanoma): 34.9 µM
TGI (MOLT-4 leukemia): > 100 µM
TGI (K-562 leukemia): > 100 µM
TGI (SK-MEL-5 melanoma): 6.61 µM

CCC(=O)C(C)C(=O)C(=O)C(=O)OC (configuration not stated)
TGI (786-0 renal): > 100 µM
TGI (SF-539 CNS): > 100 µM
TGI (SF-295 CNS): > 100 µM
TGI (SW-620 colon): > 45.7 µM
TGI (TK-10 renal): > 100 µM
TGI (SK-MEL-2 melanoma): > 100 µM
TGI (MOLT-4 leukemia): > 91.5 µM
TGI (K-562 leukemia): > 100 µM
TGI (SK-MEL-5 melanoma): > 100 µM

O=C(Nc1ccc2[nH]c(C(=O)N3CC(CCl)c4c3cc([N+](=O)[O-])c3ccccc43)cc2c1)c1cc2ccccc2o1 (configuration not stated)
GI50 (786-0 renal): > 1100 µM
TGI (786-0 renal): > 1100 µM
TGI (SF-539 CNS): > 1100 µM
GI50 (BT-549 breast): > 1100 µM
TGI (BT-549 breast): > 1100 µM
TGI (SF-295 CNS): > 1100 µM
GI50 (SW-620 colon): > 1100 µM
TGI (SW-620 colon): > 1100 µM
GI50 (SK-MEL-2 melanoma): > 1100 µM
TGI (SK-MEL-2 melanoma): > 1100 µM
GI50 (MOLT-4 leukemia): 180 µM
TGI (MOLT-4 leukemia): > 1100 µM
GI50 (SK-MEL-5 melanoma): > 1100 µM
TGI (SK-MEL-5 melanoma): > 1100 µM

O=C1[C@H]2ON(c3ccccc3)C(c3ccccc3F)[C@H]2C(=O)N1c1ccc(Cc2ccc(N3C(=O)[C@@H]4ON(c5ccccc5)C(c5ccccc5F)[C@@H]4C3=O)cc2)cc1 (some centres not stated)
TGI (786-0 renal): > 100 µM
TGI (SF-539 CNS): > 100 µM
TGI (SF-295 CNS): > 100 µM
TGI (SW-620 colon): > 100 µM
TGI (SK-MEL-2 melanoma): > 100 µM
TGI (MOLT-4 leukemia): > 100 µM
TGI (K-562 leukemia): > 100 µM
TGI (SK-MEL-5 melanoma): > 100 µM
